Experimental data taken from article PMC4635571 (Journal of immunology (Baltimore, Md. : 1950), 2015).

Assays:
polarized CD4+ T cells [1] = test: P-selectin; format: cell-based, mouse
[2] = test system: HCT116 colorectal carcinoma cell line; test: Inhibition of proliferation of HCT116 cells; format: cell-based; details: read-out: IC50 of inhibition of proliferation; HCT116, general cytotoxicity
CD-1 mice = test: Anti-CD3-induced cytokines in mouse plasma; format: in vivo; details: 20 mg/kg i.p., anti-CD3 1hr or 6hr later, plasma 2hr post-anti-CD3
phosphorylated-PLCγ1 = test: In vivo target engagement assay; parameters: species or system mouse; details: 40 mg/kg oral, 2hr or 6hr post-treatment, ex vivo anti-CD3/CD28 stimulation
naïve CD4+ T cells = format: cell-based, mouse
Rag2−/− hosts = test: CD4+ CD45RBhi T cell adoptive transfer model of colitis; format: in vivo
polarized CD4+ T cells [3] = test: Transwell cell migration assay; format: cell-based, mouse; details: 3hr, cells cultured with 25 or 50nM PRN694
ITK = details: versus e.g. BMS-509744 and BMS-488516; Fig. 1B
[4] = test system: Human peripheral blood mononuclear cells (PBMC); test: Cytokine production by human PBMC; format: cell-based

C=CC(=O)N1CCC[C@@H]1Cn1c(NC(=O)c2ccc(C(F)F)s2)nc2cc(CN[C@@H](C)C(C)(C)C)ccc21 [PRN694]
P-selectin binding of TH1 and TH17 cells (polarized CD4+ T cells [1]; differentiated 72hr with 25 or 50nM PRN694): reduced P-selectin binding | P-selectin binding of TH2 cells (polarized CD4+ T cells [1]; only visible in the higher dose of inhibitor (50nM)): only a modest reduction | IC50 [2]: 10 µM | increase in plasma IFN-γ, IL-6 and IL-2 induced by anti-CD3 (CD-1 mice): inhibited | phosphorylation of PLCγ1 (phosphorylated-PLCγ1): completely blocked | inhibition of IFN-γ production by TH1 cells (naïve CD4+ T cells; 25nM PRN694, TH1-polarizing conditions, 72hr, PMA/Ionomycin restimulation 5hr): > 50% | expression levels of transcription factors (T-bet, GATA-3, RORγt) (naïve CD4+ T cells; TH1, TH2, TH17 polarization with inhibitor): decreased | IL-2 production by in vitro polarized CD4+ T cells (naïve CD4+ T cells; all three lineages of T helper cells, 72hr): inhibited | inhibition of IL-4 production by TH2 cells (naïve CD4+ T cells; any of the doses tested, TH2-polarizing conditions, 72hr): < 50% | toxicity during long-term in vivo administration (Rag2−/− hosts; 7 week dosing time frame): no apparent toxicity | CD4+ T cell proportions in intestinal epithelium and LP versus vehicle (Rag2−/− hosts; 7 weeks post-transfer): significantly less | expression of integrin α4β7 and CCR6 on intestinal epithelial CD4+ T cells (Rag2−/− hosts; 7 weeks post-transfer): reduced | histological analysis of the colonic epithelium (Rag2−/− hosts; 7 weeks post-transfer, H&E): reduced inflammation | proportions of cells capable of producing IL-2 (Rag2−/− hosts; 7 weeks post-transfer, PMA/Ionomycin): reduced proportions | reduced colon length (Rag2−/− hosts; 7 weeks post-transfer, oral dosing): prevented | proportions of CD4+ T cells expressing Foxp3 (Rag2−/− hosts; all organs examined, 7 weeks post-transfer): significantly reduced | behavioral indications of toxicity (Rag2−/− hosts; long-term in vivo administration): no behavioral indications of drug-mediated toxicity | proportions of CD4+ T cells producing IFN-γ (Rag2−/− hosts; mesenteric LN, IEL and LP, 7 weeks post-transfer, PMA/Ionomycin): markedly reduced | weight change (disease progression) (Rag2−/− hosts; oral 40 mg/kg once a day or 20 mg/kg twice a day, 7 weeks): no weight loss | TH17 migration to CCL20 (polarized CD4+ T cells [3]; CCL20 100 ng/mL): reduced approximately two-fold | TH1 migration to CXCL11 (polarized CD4+ T cells [3]; CXCL11 100 ng/mL): inhibited | fold more potent in inhibiting ITK than previously-described ITK inhibitors (ITK): 63- to 320 fold | increase in IFN-γ, IL-6 and IL-2 induced by anti-CD3/CD28 ([4]; 20nM PRN694, 18hr): strongly inhibited | increase in IFN-γ, IL-6 and IL-2 induced by anti-CD3/CD28 ([4]; 5.0μM PRN694, 18hr): completely blocked | ability to inhibit IL-2 production on thapsigargin stimulation ([4]; PBMC stimulated with thapsigargin 10 μM, 18hr): strongly impaired
